Results: PMC10964925 (European journal of medicinal chemistry, 2024)

How the values were obtained:
[1] = molecular target: T1, FimHLD (isolated lectin domain of FimH) (Escherichia coli, UniProt P08191); conditions: read-out: KD FimHLD; competitive FPA; mannosides; ref [18] and [19]; cited from earlier work
[2] = molecular target: T1, FimHLD (isolated lectin domain of FimH); test: competitive fluorescence polarization assay; assay type: binding; conditions: for factor of affinity improvement from 1: aglycone optimization
[3] = molecular target: FimHFL (full length FimH) (Escherichia coli, UniProt P08191); test: competitive fluorescence polarization assay; assay type: binding
[4] = ligand solubility in assay buffer; assay type: physicochemical; conditions: for solubility: assay buffer with 5% or 10% DMSO; for highest achievable ligand concentration: assay buffer, final DMSO concentration 10%
FimHLD = FimHLD (Escherichia coli, UniProt P08191); test: isothermal titration calorimetry; assay type: binding; conditions: ITC KD versus FPA KD
FimHLD, sequence (P08191 22-179): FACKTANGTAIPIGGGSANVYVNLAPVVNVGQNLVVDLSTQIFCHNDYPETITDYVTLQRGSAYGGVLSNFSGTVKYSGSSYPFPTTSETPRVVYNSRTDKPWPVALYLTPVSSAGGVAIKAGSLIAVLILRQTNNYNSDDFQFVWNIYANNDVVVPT

T1 sequence (P08191 22-179): as above
FimHFL (full length FimH), sequence (P08191 22-300, other chains not shown): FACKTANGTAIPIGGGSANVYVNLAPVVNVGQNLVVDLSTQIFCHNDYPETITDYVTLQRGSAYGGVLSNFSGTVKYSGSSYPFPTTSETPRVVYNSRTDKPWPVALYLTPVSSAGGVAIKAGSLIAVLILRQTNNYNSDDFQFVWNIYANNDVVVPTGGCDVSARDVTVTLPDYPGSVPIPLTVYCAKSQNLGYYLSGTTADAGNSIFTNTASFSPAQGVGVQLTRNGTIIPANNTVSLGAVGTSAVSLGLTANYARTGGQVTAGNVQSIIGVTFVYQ

## N#Cc1ccc(-c2ccc(O[C@H]3O[C@H](CO)[C@@H](O)[C@H](O)[C@@H]3O)cc2)cc1 [compound 27]
[1]
  Kd: 2 nM

## N#Cc1ccc(-c2ccc(O[C@H]3O[C@H](CO)[C@@H](O)[C@H](O)[C@@H]3O)c(Cl)c2)cc1 [compound 30, reference compound]
[2]; mannoside ligands, from literature KD values
  factor of affinity improvement comparing 2 to 30: 56.6

## OC[C@H]1OC[C@H](OCc2ccccc2)[C@@H](O)[C@@H](O)[C@@H]1O [compound 4, 2-O-benzyl-1,6-anhydro-D-glycero-D-galactitol]
[2]; FPA
  factor of loss in binding affinity compared to phenylpropyl analog 5: 10

## N#Cc1ccc(-c2ccc(CO[C@H]3CO[C@H](CO)[C@@H](O)[C@H](O)[C@@H]3O)c(Cl)c2)cc1 [9a, 2-O-(2-chloro-4-[4-cyanophenyl]benzyl)-1,6-anhydro-D-glycero-D-galactitol]
[2]; FPA
  factor of affinity improvement from 1: 1.5

## N#Cc1ccc(-c2ccc(CO[C@H]3CO[C@H](CO)[C@@H](O)[C@H](O)[C@@H]3O)cc2)cc1 [7a, 2-O-(4-[4-cyanophenyl]benzyl)-1,6-anhydro-D-glycero-D-galactitol]
[3]; para-cyano group on outer aromatic ring versus unsubstituted 7c
  increase in binding affinity to FimHFL: approximately 2 fold
[4]
  solubility: insufficient solubility

## N#Cc1ccc(-c2ccc(O[C@H]3CO[C@H](CO)[C@@H](O)[C@H](O)[C@@H]3O)cc2)cc1 [compound 6, 2-O-(4-[4-cyanophenyl]phenyl)-1,6-anhydro-D-glycero-D-galactitol]
[2]; FPA
  factor of affinity increase compared to 7a: 6
FimHLD
  ITC binding affinity lower than recorded in the FPA assay: approx. 3 fold
[4]
  solubility: low solubility
  highest achievable ligand concentration: ≤ 500 µM

## NC(=O)c1ccc(-c2ccc(O[C@H]3O[C@H](CO)[C@@H](O)[C@H](O)[C@@H]3O)cc2)cc1 [compound 28]
[1]
  Kd: 2.8 nM

## OC[C@H]1OC[C@H](Oc2ccc(-c3ccccc3)cc2Cl)[C@@H](O)[C@@H](O)[C@@H]1O [8c, 2-O-[4-phenyl-2-chlorophenyl]-1,6-anhydro-D-glycero-D-galactitol]
[2]; FPA
  factor of affinity improvement from 1: 32
[4]
  solubility: low solubility
  highest achievable ligand concentration: ≤ 500 µM

## N#Cc1ccc(-c2ccc(O[C@H]3CO[C@H](CO)[C@@H](O)[C@H](O)[C@@H]3O)c(Cl)c2)cc1 [8a, 2-O-[4-(4’-cyanophenyl)-2-chlorophenyl]-1,6-anhydro-D-glycero-D-galactitol]
[2]; FPA, ortho-chloro modification
  factor of affinity improvement compared to 6: 2.6
[3]; FimHFL, FPA, versus 6
  factor of affinity gain by ortho-chloro modification: 6
[4]
  solubility: low solubility
  highest achievable ligand concentration: ≤ 500 µM
